Entries after “also recorded” stand apart in the source; their conditions may differ.
Experiments:
Format in all cases: cell-based, human
[1] = test system: pancreatic cancer cells (AsPC1 and BxPC3) and breast cancer cells (MB361 and MB468); assay: SACF assay with CEP-1347
Method: (§1) FIGS. 15A to 15D include charts showing that CEP-1347 inhibits IL-17RB Y447 phosphorylation, ERK1/2 phosphorylation, and aggressiveness of both pancreatic and breast cancer cells. Pancreatic cancer cells (AsPC1 and BxPC3) and breast cancer cells (MB361 and MB468) were transduced with lentiviral shLacZ (control) and lentiviral shMLK4, separately. In comparison to MLK4-knockdown cells, shLacZ-transduced cancer cells were pretreated with CEP-1347 (200 nM), a non-selective inhibitor of MLKs, before adding 50 ng/ml rIL-17B in serum-free conditions for 30 mins. The cell lysates were immunoblotted directly with the indicated antibodies (FIG. 15A). The same cells were measured by RT-qPCR for the cytokine gene expression (n=3) (FIG. 15B), for SACF assay (n=4) (FIG. 15C), and for invasion assay (n=4) (FIG. 15D). All the data are mean±s.d. *P<0.05, **P<0.01 by two-tailed Student's t-test.
Soft agar colony formation assay was performed as described (7). Briefly, 250010000 cells were seeded in a layer of 0.35% agar/complete growth medium over a layer of 0.5% agar/complete growth medium in a 12-well plate. Cell medium containing the indicated concentration of rIL-17B (R&D), DMSO (Sigma-Aldrich), or CEP-1347 (Tocris Bioscience) was replenished every three days. […] Crystal violet-stained colonies greater than 50 μm in size were counted and analyzed objectively by light microscopy.

[2] = test system: pancreatic cancer cells (AsPC1 and BxPC3) and breast cancer cells (MB361 and MB468); assay: Invasion assay with CEP-1347
Method: as §1
For invasion assay, about 10^4 cells were seeded in the top chamber with Matrigel-coated membrane (24-well BD Falcon HTS Fluoro Block insert; pore size, 8 μm; BD Biosciences) in serum-free media containing rIL-17B, DMSO, or CEP-1347. Medium supplemented with 10% serum was used as a chemoattractant in the lower chamber. After 24- or 48 hrs incubation, the invading cells were fixed with methanol, stained with 4,6-diamidino-2-phenylindole (DAPI) and counted by fluorescence microscopy.

[3] = test system: pancreatic cancer cells (AsPC1 and BxPC3) and breast cancer cells (MB361 and MB468); assay: RT-qPCR of cytokine gene expression after CEP-1347; conditions: CEP-1347 200 nM
Method: as §1, with “All the data are mean±s.d. *P<0.05, **P<0.01 by two-tailed Student's t-test.” left out
Total RNA from cultured cells and tumor tissue was isolated using Trizol reagent (Thermo Fisher Scientific) and reversely transcribed with Transcriptor First Strand cDNA Synthesis Kit (Roche Life Science) for gene expression analysis according to manufacturer's instructions. Quantitative real-time RT-PCR assay was run on the StepOnePlus system (Applied Biosystems) using KAPA SYBR FAST qPCR Kit (Kapa Biosystems) according to manufacturer's instructions, and data was analyzed by StepOne Software v2.2.2. β-actin mRNA was used as an internal control. […]

MLKs = assay: Immunoblotting of IL-17B-induced phosphorylation after CEP-1347 pretreatment; conditions: CEP-1347 200 nM pretreatment, then 50 ng/ml rIL-17B 30 mins; AsPC1, BxPC3, MB361, MB468
Method: as §1
Immunoblotting analysis was performed after proteins were separated by gradient SDS-PAGE (HR gradient gel solution, TFUGG420, TOOLS) and transferred to PVDF membrane, with overnight incubation with diluted primary antibody followed by diluted horseradish peroxidase-conjugated anti-rabbit, anti-mouse or anti-goat antibody (Jackson ImmunoResearch) as described (48-50). […] Optical density was determined using the National Institutes of Health ImageJ program.

For CCSCc1ccc2c(c1)c1c3c(c4c5cc(CSCC)ccc5n5c4c1n2[C@H]1C[C@](O)(C(=O)OC)[C@]5(C)O1)CNC3=O [CEP-1347], the “aggressiveness of both pancreatic and breast cancer cells” value ([1]; CEP-1347 200 nM, SACF and invasion assays) was “inhibits”, the colony formation ([1]; CEP-1347, AsPC1, BxPC3, MB361, MB468) was “abrogated” and the “invasion properties of the cancer cells” value [2] was “abrogated”. For the same compound, the cytokine gene expressions [3] was “abrogated”, the ERK1/2 phosphorylation (MLKs) was “abrogated; also recorded: inhibits” and the “IL-17RB (Y447) phosphorylation” value (MLKs) was “abrogated; also recorded: inhibits”.

Reference: patent publication US20240124528A1, “ANTAGONIST OF INTERLEUKIN-17B RECEPTOR (IL-17RB) AND USE THEREOF” (Academia Sinica, priority 2020, published 2024)
